{"source": "patent US10005771B2", "about": "“Bicyclic derivatives having β2 adrenergic agonist and M3 muscarinic antagonist activities” (Almirall, S.A., priority 2014, dated 2018)", "key": {"[1]": {"biological_target": "T1, human adrenergic β2 receptor (Homo sapiens, UniProt P07550)", "T1 construct": "purchased Perkin Elmer; host or cells: Sf9 cells", "assay": "Human adrenergic β2 receptor binding assay (3H-CGP12177, Sf9 membranes)", "conditions": "membranes from Sf9 cells, 0.6 nM 3H-CGP12177, 60 minutes at room temperature", "protocol": "Test 1: Human Adrenergic β1 and β2 Receptor Binding Assays\nThe study of binding to human adrenergic beta1 and beta2 receptors was performed using commercial membranes prepared from Sf9 cells where they are overexpressed (Perkin Elmer). The membrane suspensions (16 μg/well for beta1 and 5 μg/well for beta2) in assay buffer (75 mM Tris/HCl with 12.5 mM MgCl2 and 2 mM EDTA pH=7.4) were incubated with 0.14 or 0.6 nM of 3H-CGP12177 (Amersham) for beta 1 and beta 2 receptors respectively in a final volume of 250 μl, in GFC Multiscreen 96 well plates (Millipore) previously treated with assay buffer containing 0.3% PEI (Sigma). Non specific binding was measured in the presence of 1 μM propanolol. Incubation was maintained for 60 minutes at room temperature and with gentle shaking. The binding reactions were terminated by filtration and washing with 2.5 volumes of Tris/HCl 50 mM pH=7.4. The affinity of each test compound to the receptor was determined by using ten different concentrations ran in duplicate. IC50s were calculated using Activity Base software from IDBS and the four parameters-log equation."}, "[2]": {"biological_target": "T2, human muscarinic M3 receptors (Homo sapiens, UniProt P20309)", "T2 construct": "purchased Perkin Elmer; host or cells: CHO-K1 cells", "T2 sequence (P20309 whole entry)": "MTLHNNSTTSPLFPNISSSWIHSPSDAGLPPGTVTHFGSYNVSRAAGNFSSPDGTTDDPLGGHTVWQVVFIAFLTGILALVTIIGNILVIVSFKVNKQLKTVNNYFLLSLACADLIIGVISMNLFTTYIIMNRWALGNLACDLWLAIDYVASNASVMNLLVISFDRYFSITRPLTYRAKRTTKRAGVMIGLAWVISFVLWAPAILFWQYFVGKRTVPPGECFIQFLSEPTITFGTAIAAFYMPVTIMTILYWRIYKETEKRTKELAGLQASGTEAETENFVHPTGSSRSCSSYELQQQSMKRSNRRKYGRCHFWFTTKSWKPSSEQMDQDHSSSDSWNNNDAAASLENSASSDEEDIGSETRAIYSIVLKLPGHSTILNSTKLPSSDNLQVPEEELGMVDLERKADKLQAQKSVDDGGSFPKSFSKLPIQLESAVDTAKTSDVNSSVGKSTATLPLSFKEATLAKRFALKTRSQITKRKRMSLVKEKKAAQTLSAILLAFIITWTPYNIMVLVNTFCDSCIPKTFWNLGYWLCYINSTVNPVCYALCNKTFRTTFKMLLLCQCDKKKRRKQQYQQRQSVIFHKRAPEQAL", "assay": "Human muscarinic M3 receptors binding assay ([3H]-NMS, CHO-K1 membranes)", "conditions": "membranes from CHO-K1 cells, [3H]-NMS radioligand, two hours incubation", "protocol": "Test 2: Human Muscarinic M3 Receptors Binding Assays\nThe study of binding to human muscarinic M3 receptors was performed using commercial membranes (Perkin Elmer) prepared from CHO-K1 cells.\nRadioligand binding experiments were conducted in 96 polypropylene well plates in a total volume of 200 μl. All reagents were dissolved in assay binding buffer (PBS with calcium and magnesium, SIGMA), except compounds that were dissolved in DMSO 100%. Non-specific binding (NSB) was measured in the presence of 1 μM atropine. [3H]-NM, used as the radioligand was incubated with membranes that express human muscarinic M3 at concentration of 4.9 μg/well.\nAfter an incubation period of two hours with gentle shaking, 150 μl of the reaction mix were transferred to 96 GF/C filter plates (Millipore), previously treated with wash buffer (Tris 50 mM; NaCl 100 mM; pH: 7.4), containing 0.05% PEI (Sigma) during one hour. Bound and free [3H]-NMS were separated by rapid vacuum filtration in a manifold from Millipore and washed four times with ice cold wash buffer. After drying 30 min, 30 μl of OPTIPHASE Supermix were added to each well and radioactivity quantified using a Microbeta microplate scintillation counter.\nThe affinity of each test compound to the receptor was determined by using ten different concentrations ran in duplicate. IC50s were calculated using Activity Base software from IDBS and the four parameters-log equation."}}}
{"compound": "(3R)-1-azabicyclo[2.2.2]oct-3-yl 1-(3-{4-[{[2-chloro-4-({[2-hydroxy-2-(8-hydroxy-2-oxo-1,2-dihydroquinolin-5-yl)ethyl]amino}methyl)-5-methoxyphenoxy]acetyl}(methyl)amino]butyl}phenyl)cyclohexanecarboxylate [Example 26]", "values": [{"measurement": "IC50", "setting": "[1]", "result": 3, "unit": "nM"}, {"measurement": "IC50", "setting": "[2]", "result": 0.53, "unit": "nM"}]}
{"compound": "COc1cc(NC(=O)CCCc2cccc(C3(C(=O)OCC4CCNCC4)CCCCC3)c2)c(Cl)cc1CNC[C@H](O)c1ccc(O)c2[nH]c(=O)ccc12", "note": "[Example 28, piperidin-4-ylmethyl 1-[3-(4-{[2-chloro-4-({[(2R)-2-hydroxy-2-(8-hydroxy-2-oxo-1,2-dihydroquinolin-5-yl)ethyl]amino}methyl)-5-methoxyphenyl]amino}-4-oxobutyl)phenyl]cyclohexanecarboxylate]", "values": [{"measurement": "IC50", "setting": "[1]", "result": 2.2, "unit": "nM"}, {"measurement": "IC50", "setting": "[2]", "result": 0.36, "unit": "nM"}]}
{"compound": "COc1cc(C(=O)N(C)CCCc2cccc(C3(C(=O)O[C@H]4CN5CCC4CC5)CCCCC3)c2)c(Cl)cc1CNC[C@H](O)c1ccc(O)c2[nH]c(=O)ccc12", "note": "[Example 12, (3R)-1-azabicyclo[2.2.2]oct-3-yl 1-(3-{3-[[2-chloro-4-({[(2R)-2-hydroxy-2-(8-hydroxy-2-oxo-1,2-dihydroquinolin-5-yl)ethyl]amino}methyl)-5-methoxybenzoyl](methyl)amino]propyl}phenyl)cyclohexanecarboxylate]", "values": [{"measurement": "IC50", "setting": "[1]", "result": 10, "unit": "nM"}, {"measurement": "IC50", "setting": "[2]", "result": 2.1, "unit": "nM"}]}
{"compound": "O=C(O[C@H]1CN2CCC1CC2)C1(c2cccc(CCCCn3c(=O)oc4cc(CNC[C@H](O)c5ccc(O)c6[nH]c(=O)ccc56)ccc43)c2)CCCCC1", "note": "[Example 1, (3R)-1-azabicyclo[2.2.2]oct-3-yl 1-(3-{4-[6-({[(2R)-2-hydroxy-2-(8-hydroxy-2-oxo-1,2-dihydroquinolin-5-yl)ethyl]amino}methyl)-2-oxo-1,3-benzoxazol-3(2H)-yl]butyl}phenyl)cyclohexanecarboxylate]", "values": [{"measurement": "IC50", "setting": "[1]", "result": 4.3, "unit": "nM"}, {"measurement": "IC50", "setting": "[2]", "result": 1.6, "unit": "nM"}]}
{"compound": "O=C(O[C@H]1CN2CCC1CC2)C1(c2cccc(CCCCn3nnc4cc(CNC[C@H](O)c5ccc(O)c6[nH]c(=O)ccc56)ccc43)c2)CCCCC1", "note": "[Example 5, (3R)-1-azabicyclo[2.2.2]oct-3-yl 1-(3-{4-[5-({[(2R)-2-hydroxy-2-(8-hydroxy-2-oxo-1,2-dihydroquinolin-5-yl)ethyl]amino}methyl)-1H-1,2,3-benzotriazol-1-yl]butyl}phenyl)cyclohexanecarboxylate]", "values": [{"measurement": "IC50", "setting": "[1]", "result": 28, "unit": "nM"}, {"measurement": "IC50", "setting": "[2]", "result": 1.1, "unit": "nM"}]}
{"compound": "COc1cc(C(=O)OCCCCc2cccc(C3(C(=O)O[C@H]4CN5CCC4CC5)CCCCC3)c2)c(Cl)cc1CNC[C@H](O)c1ccc(O)c2[nH]c(=O)ccc12", "note": "[Example 22, 4-[3-(1-{[(3R)-1-azabicyclo[2.2.2]oct-3-yloxy]carbonyl}cyclohexyl)phenyl]butyl 2-chloro-4-({[(2R)-2-hydroxy-2-(8-hydroxy-2-oxo-1,2-dihydroquinolin-5-yl)ethyl]amino}methyl)-5-methoxybenzoate]", "values": [{"measurement": "IC50", "setting": "[1]", "result": 7.8, "unit": "nM"}, {"measurement": "IC50", "setting": "[2]", "result": 0.29, "unit": "nM"}]}
{"compound": "COc1cc(NC(=O)CCCc2ccc(C3(C(=O)O[C@H]4CN5CCC4CC5)CCCCC3)cc2)c(Cl)cc1CNC[C@H](O)c1ccc(O)c2[nH]c(=O)ccc12", "note": "[Example 31, (3R)-1-azabicyclo[2.2.2]oct-3-yl 1-[4-(4-{[2-chloro-4-({[(2R)-2-hydroxy-2-(8-hydroxy-2-oxo-1,2-dihydroquinolin-5-yl)ethyl]amino}methyl)-5-methoxyphenyl]amino}-4-oxobutyl)phenyl]cyclohexanecarboxylate]", "values": [{"measurement": "IC50", "setting": "[1]", "result": 4, "unit": "nM"}, {"measurement": "IC50", "setting": "[2]", "result": 0.41, "unit": "nM"}]}
{"compound": "O=C(CCCc1cccc(C2(C(=O)O[C@H]3CN4CCC3CC4)CCCCC2)c1)NCCCCCNC[C@H](O)c1ccc(O)c2[nH]c(=O)ccc12", "note": "[Example 7, (3R)-1-azabicyclo[2.2.2]oct-3-yl 1-(3-{4-[(5-{[(2R)-2-hydroxy-2-(8-hydroxy-2-oxo-1,2-dihydroquinolin-5-yl)ethyl]amino}pentyl)amino]-4-oxobutyl}phenyl)cyclo hexanecarboxylate]", "values": [{"measurement": "IC50", "setting": "[1]", "result": 6.7, "unit": "nM"}, {"measurement": "IC50", "setting": "[2]", "result": 1.5, "unit": "nM"}]}
{"compound": "COc1cc(C(=O)NCCCc2cccc(C3(C(=O)O[C@H]4CN5CCC4CC5)CCCCC3)c2)c(Cl)cc1CNC[C@H](O)c1ccc(O)c2[nH]c(=O)ccc12", "note": "[Example 20, (3R)-1-azabicyclo[2.2.2]oct-3-yl 1-[3-(3-{[2-chloro-4-({[(2R)-2-hydroxy-2-(8-hydroxy-2-oxo-1,2-dihydroquinolin-5-yl)ethyl]amino}methyl)-5-methoxybenzoyl]amino}propyl)phenyl]cyclohexanecarboxylate]", "values": [{"measurement": "IC50", "setting": "[1]", "result": 3.8, "unit": "nM"}, {"measurement": "IC50", "setting": "[2]", "result": 0.14, "unit": "nM"}]}
{"compound": "COc1cc(NCC(=O)NCCCc2cccc(C3(C(=O)O[C@H]4CN5CCC4CC5)CCCCC3)c2)c(Cl)cc1CNC[C@H](O)c1ccc(O)c2[nH]c(=O)ccc12", "note": "[Example 30, (3R)-1-azabicyclo[2.2.2]oct-3-yl 1-{3-[3-({N-[2-chloro-4-({[(2R)-2-hydroxy-2-(8-hydroxy-2-oxo-1,2-dihydroquinolin-5-yl)ethyl]amino}methyl)-5-methoxyphenyl]glycyl}amino)propyl]phenyl}cyclohexanecarboxylate]", "values": [{"measurement": "IC50", "setting": "[1]", "result": 13, "unit": "nM"}, {"measurement": "IC50", "setting": "[2]", "result": 1.5, "unit": "nM"}]}
{"compound": "COc1cc(NC(=O)CCCc2cccc(C3(C(=O)OCC45CCN(CC4)CC5)CCCCC3)c2)c(Cl)cc1CNC[C@H](O)c1ccc(O)c2[nH]c(=O)ccc12", "note": "[Example 18, 1-azabicyclo[2.2.2]oct-4-yl methyl 1-[3-(4-{[2-chloro-4-({[(2R)-2-hydroxy-2-(8-hydroxy-2-oxo-1,2-dihydroquinolin-5-yl)ethyl]amino}methyl)-5-methoxyphenyl]amino}-4-oxobutyl)phenyl]cyclohexanecarboxylate]", "values": [{"measurement": "IC50", "setting": "[1]", "result": 2.3, "unit": "nM"}, {"measurement": "IC50", "setting": "[2]", "result": 0.14, "unit": "nM"}]}
{"compound": "O=C1c2ccc(CNC[C@H](O)c3ccc(O)c4[nH]c(=O)ccc34)cc2CN1CCCCc1cccc(C2(C(=O)O[C@H]3CN4CCC3CC4)CCCCC2)c1", "note": "[Example 23, (3R)-1-azabicyclo[2.2.2]oct-3-yl 1-(3-{4-[5-({[(2R)-2-hydroxy-2-(8-hydroxy-2-oxo-1,2-dihydroquinolin-5-yl)ethyl]amino}methyl)-1-oxo-1,3-dihydro-2H-isoindol-2-yl]butyl}phenyl)cyclohexanecarboxylate]", "values": [{"measurement": "IC50", "setting": "[1]", "result": 26, "unit": "nM"}, {"measurement": "IC50", "setting": "[2]", "result": 0.61, "unit": "nM"}]}
{"compound": "COc1cc(OCC(=O)N(C)CCCc2cccc(C3(C(=O)O[C@H]4CN5CCC4CC5)CCCCC3)c2)c(Cl)cc1CNC[C@H](O)c1ccc(O)c2[nH]c(=O)ccc12", "note": "[Example 4, (3R)-1-azabicyclo[2.2.2]oct-3-yl 1-(3-{3-[{[2-chloro-4-({[(2R)-2-hydroxy-2-(8-hydroxy-2-oxo-1,2-dihydroquinolin-5-yl)ethyl]amino}methyl)-5-methoxyphenoxy]acetyl}(methyl)amino]propyl}phenyl)cyclohexanecarboxylate]", "values": [{"measurement": "IC50", "setting": "[1]", "result": 6.6, "unit": "nM"}, {"measurement": "IC50", "setting": "[2]", "result": 0.74, "unit": "nM"}]}
{"compound": "O=C(CCCc1cccc(C2(C(=O)O[C@H]3CN4CCC3CC4)CCCCC2)c1)N[C@H]1CC[C@H](CNC[C@H](O)c2ccc(O)c3[nH]c(=O)ccc23)CC1", "note": "[Example 3, (3R)-1-azabicyclo[2.2.2]oct-3-yl 1-[3-(4-{[trans-4-({[(2R)-2-hydroxy-2-(8-hydroxy-2-oxo-1,2-dihydroquinolin-5-yl)ethyl]amino}methyl)cyclohexyl]amino}-4-oxobutyl)phenyl]cyclohexanecarboxylate]", "values": [{"measurement": "IC50", "setting": "[1]", "result": 4.2, "unit": "nM"}, {"measurement": "IC50", "setting": "[2]", "result": 1.7, "unit": "nM"}]}
{"compound": "O=C(NCCCCc1cccc(C2(C(=O)O[C@H]3CN4CCC3CC4)CCCCC2)c1)c1ccc(CNC[C@H](O)c2ccc(O)c3[nH]c(=O)ccc23)nc1", "note": "[Example 21, (3R)-1-azabicyclo[2.2.2]oct-3-yl 1-{3-[4-({[6-({[(2R)-2-hydroxy-2-(8-hydroxy-2-oxo-1,2-dihydroquinolin-5-yl)ethyl]amino}methyl)pyridin-3-yl]carbonyl}amino)butyl]phenyl}cyclohexanecarboxylate]", "values": [{"measurement": "IC50", "setting": "[1]", "result": 34, "unit": "nM"}, {"measurement": "IC50", "setting": "[2]", "result": 0.6, "unit": "nM"}]}
{"compound": "COc1cc(NC(=O)CCCc2cccc(C3(C(=O)O[C@H]4CN5CCC4CC5)CCCCC3)c2)c(Cl)cc1CNC[C@H](O)c1ccc(O)c2[nH]c(=O)ccc12", "note": "[Example 2, (3R)-1-azabicyclo[2.2.2]oct-3-yl 1-[3-(4-{[2-chloro-4-({[(2R)-2-hydroxy-2-(8-hydroxy-2-oxo-1,2-dihydroquinolin-5-yl)ethyl]amino}methyl)-5-methoxyphenyl]amino}-4-oxobutyl)phenyl]cyclohexanecarboxylate]", "values": [{"measurement": "IC50", "setting": "[1]", "result": 3, "unit": "nM"}, {"measurement": "IC50", "setting": "[2]", "result": 0.22, "unit": "nM"}]}
